Data reported in patent US4425350A, “5,6,6a,7-Tetrahydro-4H-dibenz(de,g)-isoquinoline derivatives, and their use for treating central nervous system disorders” (Warner-Lambert Company, priority 1980, dated 1984).

Legend:
[1] = Acute toxicity (LD50), intragastral administration, male mice; conditions: mouse, in vivo, po
[2] = Prolongation of evipan sodium narcosis; format: in vivo
Text: 3. Prolongation of evipan sodium narcosis, Arch. Int. Pharmacodyn; 126, pgs. 219-227 (1960).

rats = experiment: Behavioural test in rats, modified after Irwin; format: in vivo
Text: 2. Behavioural test in rats, modified after Irwin, Psychopharmacologica. (Berl.); 13, pgs. 222-257 (1968).

dogs = experiment: Alphalysis (alphalytic activity) in dogs; format: in vivo; conditions: for alphalytic activity: from 1 mg./kg. i.v.
Protocol: 4. Alphalysis, Medizinische Wochenschrift; 81, pg. 352 (1951).
The alphalytic activity of the compounds of Examples 8 and 9 was tested on dogs.

COc1cc2c(cc1OC)-c1c(OC)c(OC)cc3c1C(C2)CN(C)C3 (racemic) [Example 8, (±)-5,6,6a,7-Tetrahydro-1,2,9,10-tetramethoxy-5-methyl-4H-dibenz(de,g)isoquinoline]
LD50 [1]: 800 mg/kg
prolongation of the sleeping time in % ([2]; dosage 50 mg./kg.): 64%
catatonia (rats; 300 mg./kg.): catatonia
lowering of the body temperature (rats; 300 mg./kg.): lowering
muscle tonus (rats; 300 mg./kg.): reduced muscle tonus
ptosis (rats; 300 mg./kg.): ptosis
sedation (rats; 300 mg./kg.): sedation
alphalytic activity (dogs): a distinct alphalytic activity is detectable
alphalytic action after intraduodenal administration (dogs; intraduodenal): the action could also be confirmed after intraduodenal administration

COc1cc2c(cc1OC)-c1cc(OC)c(OC)c3c1C(C2)CN(C)C3 (racemic) [Example 10, (±)-5,6,6a,7-Tetrahydro-2,3,9,10-tetramethoxy-5-methyl-4H-dibenz(de,g)isoquinoline]
LD50 [1]: ~1200 mg/kg
prolongation of the sleeping time in % ([2]; dosage 50 mg./kg.): 268%
prolongation of the sleeping time in % ([2]; dosage 100 mg./kg.): 347%
catatonia (rats; 150 mg./kg.): catatonia
muscle tonus (rats; 150 mg./kg.): reduced muscle tonus
sedation (rats; 150 mg./kg.): sedation

COc1cc2c(cc1OC)-c1c(OC)c(OC)cc3c1C(CNC3)C2 (racemic) [Example 7, (±)-5,6,6a,7-Tetrahydro-1,2,9,10-tetramethoxy-4H-dibenz(de,g)isoquinolin]
LD50 [1]: ~600 mg/kg
prolongation of the sleeping time in % ([2]; dosage 50 mg./kg.): 147%
prolongation of the sleeping time in % ([2]; dosage 100 mg./kg.): 324%
catatonia (rats; 150 mg./kg.): catatonia
lowering of the body temperature (rats; 150 mg./kg.): lowering of the body temperature
ptosis (rats; 150 mg./kg.): ptosis
sedation (rats; 150 mg./kg.): sedation

COc1cc2c3c(c1OC)CN(C)CC3Cc1cc3c(cc1-2)OCO3 (racemic) [Example 9, (±)-5,6,6a,7-tetrahydro-2,3-dimethoxy-9,10-methylenedioxy-5-methyl-4H-dibenz(de,g)isoquinoline]
LD50 [1]: ~1200 mg/kg
prolongation of the sleeping time in % ([2]; dosage 50 mg./kg.): 339%
prolongation of the sleeping time in % ([2]; dosage 100 mg./kg.): 417%
catatonia (rats; 150 mg./kg.): catatonia
lowering of the body temperature (rats; 150 mg./kg.): lowering
sedation (rats; 150 mg./kg.): sedation
behaviour (change of symptoms versus 150 mg./kg.) (rats; 300 mg./kg., symptoms at 150 mg./kg.: sedation, catatonia, lowering of the body temperature): strengthening of the symptoms
alphalytic activity (dogs): a distinct alphalytic activity is detectable
